27 compounds from patent publication US12187721B2, “Protein tyrosine phosphatase inhibitors” (Array BioPharma Inc., priority 2018, dated 2025) can be followed below.

Assay [1] addresses T1, full-length SHP2 (His6-tagged SHP2(2-527)) (Homo sapiens, UniProt Q06124).
T1 construct: His6-tagged SHP2(2-527); His6; made in house; host or cells: E. coli
Briefly: SHP2 Enzymatic Assay (fluorescence intensity kinetic assay, DiFMUP hydrolysis). The format is biochemical. The method in brief:
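1 nM His6-SHP2(2-527), activated by 1 μM bis-phosphopeptide, hydrolysed 50 μM DiFMUP in 25 mM HEPES pH 7.4 with 1 mM DTT, 50 mM KCl and 2% DMSO. DiFMU fluorescence (Ex 355/Em 460 nm) was read kinetically for 15 min at ambient temperature.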

Assay [2] deals with ERK1/2 (Thr202/Tyr204) phosphorylation in KYSE520 cells. Briefly: Cellular Phospho-p44/42 MAPK (Erk 1/2) (Thr202/Tyr204) Assay (In-Cell Western). The format is cell-based. To be noted: Homo sapiens, KYSE-520, 1 h, read-out: Biological Example 2 IC50 (nM). On the procedure: KYSE520 cells were obtained from DSMZ and grown in RPMI supplemented with 10% fetal bovine serum, pennicillin/streptomycin, 2 mM L-alanyl-L-glutamine dipeptide in 0.85% NaCl (Glutamax™), non-essential amino acids, and sodium pyruvate. Cells were plated in 96-well plates at 30,000 cells/well and allowed to attach overnight at 37° C./5% CO2. Cells were treated with compounds prepared as a 10-point, 1:3 dilution series (range: 20 μM-1 nM), with a final DMSO concentration of 0.5%. After 1 hour incubation, cells were fixed in 3.7% formaldehyde in Dulbecco's phosphate-buffered saline (“dPBS”) at room temperature for 20 minutes. Cells were then washed with dPBS and permeabilized in 100% MeOH at room temperature for 10 minutes. Following permeabilization, cells were washed in dPBS and incubated in LI-COR Blocking Buffer (LI-COR Biosciences, Cat #927-40000) for 1 hour or longer. Plates were then incubated with an antibody specific for the MEK-dependent ERK1/2 phosphorylation sites, threonine 202 and tyrosine 204 (Cell Signaling Technologies; Cat #9101), downstream of SHP2 in the MAP kinase signal transduction pathway, as well as GAPDH (Millipore; Cat #MAB374). pErk1/2 (Thr202/Tyr204) antibody was diluted in LI-COR blocking buffer containing 0.05% polysorbate-20 (Tween-20) at 1:250; GAPDH was diluted at 1:2,500. The plates were incubated overnight at 4° C. After washing with PBS/0.05% Tween-20, the cells were incubated with fluorescently-labeled secondary antibodies (Anti-rabbit-Alexa Flour680, Invitrogen Cat #A21109; Anti-mouse-IRDye800CW, Li-cor Bioscieces Cat #926-32210, both at 1:1000 dilution) for 1 hour. Cells were then washed, as above, and analyzed for fluorescence at both 680 nm and 800 nm wavelengths using the Aerius Infrared Imaging System (LI-COR Biosciences, Model 9250). Phosphorylated Erk1/2 (Thr202/Tyr204) signal was normalized to GAPDH signal for each well. IC50 values were calculated from the normalized values using a 4-parameter fit in BioAssay software. […] The reported IC50 in Table 2 may be from a single assay or the mean of multiple assays.

T1 sequence (Q06124 2-527): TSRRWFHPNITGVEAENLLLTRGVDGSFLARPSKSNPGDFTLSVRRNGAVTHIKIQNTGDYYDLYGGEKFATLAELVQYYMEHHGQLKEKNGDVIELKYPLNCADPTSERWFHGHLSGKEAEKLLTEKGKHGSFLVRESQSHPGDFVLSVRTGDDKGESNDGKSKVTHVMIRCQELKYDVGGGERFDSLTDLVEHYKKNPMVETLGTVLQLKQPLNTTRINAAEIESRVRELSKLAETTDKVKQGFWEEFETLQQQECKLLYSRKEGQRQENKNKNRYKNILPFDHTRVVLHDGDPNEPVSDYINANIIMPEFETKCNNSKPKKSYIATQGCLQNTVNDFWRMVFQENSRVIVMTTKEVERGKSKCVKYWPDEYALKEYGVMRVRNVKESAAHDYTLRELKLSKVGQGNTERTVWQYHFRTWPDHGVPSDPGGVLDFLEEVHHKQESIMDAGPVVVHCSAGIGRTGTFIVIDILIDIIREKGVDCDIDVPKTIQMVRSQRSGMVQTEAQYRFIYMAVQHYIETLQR

In the case of `Nc1nccc(Sc2ccc3nc(N4CCC5(CC4)CC(F)(F)C[C@H]5N)cnc3n2)c1Cl` (stereo in doubt) [Example 218, 8-(6-((2-amino-3-chloropyridin-4-yl)thio)pyrido[2,3-b]pyrazin-2-yl)-3,3-difluoro-8-azaspiro[4.5]decan-1-amine], the figures for the IC50 in assay [1] and in assay [2] were 47 nM and 67 nM, respectively.

For `C[C@@H]1OCC2(CCN(c3cnc4nc(Sc5c(C(F)(F)F)cnc6[nH]ccc56)ccc4n3)CC2)[C@@H]1N` [Example 193, (3S,4S)-3-methyl-8-(6-((5-(trifluoromethyl)-1H-pyrrolo[2,3-b]pyridin-4-yl)thio)pyrido[2,3-b]pyrazin-2-yl)-2-oxa-8-azaspiro[4.5]decan-4-amine], it took 138 nM to reach half-maximal inhibition in assay [1] (IC50).

Regarding `COCCNc1nccc(Sc2ccc3nc(N4CCC(C)(N)CC4)cnc3n2)c1Cl` [Example 194, 4-((2-(4-amino-4-methylpiperidin-1-yl)pyrido[2,3-b]pyrazin-6-yl)thio)-3-chloro-N-(2-methoxyethyl)pyridin-2-amine], in assay [1], 238 nM corresponded to half-maximal inhibition (IC50). On the same count and under the same terms, the value for `COCCCNc1nccc(Sc2ccc3nc(N4CCC(C)(N)CC4)cnc3n2)c1Cl` [Example 195, 4-((2-(4-amino-4-methylpiperidin-1-yl)pyrido[2,3-b]pyrazin-6-yl)thio)-3-chloro-N-(3-methoxypropyl)pyridin-2-amine] was 506 nM.

In the case of `CC1(N)CCN(c2cnc3nc(Sc4ccnc5c4CCN5)ccc3n2)CC1` [Example 196, 1-(6-((2,3-dihydro-1H-pyrrolo[2,3-b]pyridin-4-yl)thio)pyrido[2,3-b]pyrazin-2-yl)-4-methylpiperidin-4-amine], the IC50 in assay [1] worked out at 563 nM. The same measure, in the same setting: the value for `CC1(N)CCN(c2cnc3nc(Sc4ccnc5ncccc45)ccc3n2)CC1` [Example 197, 1-(6-((1,8-naphthyridin-4-yl)thio)pyrido[2,3-b]pyrazin-2-yl)-4-methylpiperidin-4-amine] was 1510 nM. Same read-out and setting: the value for `Nc1nccc(Sc2ccc3nc(N4CCC(O)(CO)CC4)cnc3n2)c1Cl` [Example 198, 1-(6-((2-amino-3-chloropyridin-4-yl)thio)pyrido[2,3-b]pyrazin-2-yl)-4-(hydroxymethyl)piperidin-4-ol] was 3990 nM. `Nc1nccc(Sc2ccc3nc(N4C[C@H]5CC[C@@H](C4)[C@@H]5N)cnc3n2)c1Cl` [Example 199, (1R,5S,8s)-3-(6-((2-amino-3-chloropyridin-4-yl)thio)pyrido[2,3-b]pyrazin-2-yl)-3-azabicyclo[3.2.1]octan-8-amine]: in assay [1], 344 nM corresponded to half-maximal inhibition (IC50). Consider `Nc1nccc(Sc2ccc3nc(N4CC5CCC(C4)N5)cnc3n2)c1Cl` [Example 201, 4-((2-(3,8-diazabicyclo[3.2.1]octan-3-yl)pyrido[2,3-b]pyrazin-6-yl)thio)-3-chloropyridin-2-amine], for which the midpoint of inhibition in assay [1], the IC50, lay at 130 nM. In assay [1], `Nc1nccc(Sc2ccc3nc(N4CC5CCC4CNC5)cnc3n2)c1Cl` (stereo not shown) [Example 202, 4-((2-(3,6-diazabicyclo[3.2.2]nonan-6-yl)pyrido[2,3-b]pyrazin-6-yl)thio)-3-chloropyridin-2-amine] came in with a half-inhibitory concentration (IC50) of 132 nM. Same read-out and setting: then `Nc1nccc(Sc2ccc3nc(N4C[C@@H]5C[C@H]4CN5)cnc3n2)c1Cl` [Example 203, 4-((2-((1S,4S)-2,5-diazabicyclo[2.2.1]heptan-2-yl)pyrido[2,3-b]pyrazin-6-yl)thio)-3-chloropyridin-2-amine], with 142 nM. In assay [1], `Nc1nccc(Sc2ccc3nc(N4C5CCC4CNC5)cnc3n2)c1Cl` [Example 204, 4-((2-(3,8-diazabicyclo[3.2.1]octan-8-yl)pyrido[2,3-b]pyrazin-6-yl)thio)-3-chloropyridin-2-amine] came in with a concentration for half-maximal inhibition (IC50) of 47 nM. In turn, `Nc1nccc(Sc2ccc3nc(N4C5CNCC4C5)cnc3n2)c1Cl` [Example 205] yielded an IC50 in assay [1] of 114 nM. On the same count and under the same terms, the value for `Nc1nccc(Sc2ccc3nc(N4CC5CNCC(C4)O5)cnc3n2)c1Cl` [Example 206, 4-((2-(9-oxa-3,7-diazabicyclo[3.3.1]nonan-3-yl)pyrido[2,3-b]pyrazin-6-yl)thio)-3-chloropyridin-2-amine] was 2030 nM. The compound `Nc1nccc(Sc2ccc3nc(N4CC5COCC(C4)N5)cnc3n2)c1Cl` [Example 207, 4-((2-(3-oxa-7,9-diazabicyclo[3.3.1]nonan-7-yl)pyrido[2,3-b]pyrazin-6-yl)thio)-3-chloropyridin-2-amine] had a half-maximal inhibitory concentration (IC50) in assay [1] of 730 nM. On the same count and under the same terms, then `Nc1nccc(Sc2ccc3nc(N4C[C@@H]5CC[C@H]4CN5)cnc3n2)c1Cl` [Example 208, 4-((2-((1S,4S)-2,5-diazabicyclo[2.2.2]octan-2-yl)pyrido[2,3-b]pyrazin-6-yl)thio)-3-chloropyridin-2-amine], with 67 nM; and `N[C@@H]1c2cccnc2CC12CCN(c1cnc3nc(Sc4ccnc(N5CCC(O)CC5)c4Cl)ccc3n1)CC2` [Example 209, (S)-1-(4-((2-(5-amino-5,7-dihydrospiro[cyclopenta[b]pyridine-6,4′-piperidin]-1′-yl)pyrido[2,3-b]pyrazin-6-yl)thio)-3-chloropyridin-2-yl)piperidin-4-ol], with 40 nM. As for `NCC1(F)CCN(c2cnc3nc(Sc4ccnc(N)c4Cl)ccc3n2)CC1` [Example 211, 4-((2-(4-(aminomethyl)-4-fluoropiperidin-1-yl)pyrido[2,3-b]pyrazin-6-yl)thio)-3-chloropyridin-2-amine], the midpoint of inhibition in assay [1], the IC50, lay at 54 nM. Compound `NCC1(F)CCN(c2cnc3nc(Sc4cccc(Cl)c4Cl)ccc3n2)CC1` [Example 212, (1-(6-((2,3-dichlorophenyl)thio)pyrido[2,3-b]pyrazin-2-yl)-4-fluoropiperidin-4-yl)methanamine] showed an IC50 in assay [1] of 197 nM. Compound `Nc1nccc(Sc2ccc3nc(N4[C@@H]5CC[C@H]4[C@@H](N)C5)cnc3n2)c1Cl` [Example 213, (1S,2S,4R)-7-(6-((2-amino-3-chloropyridin-4-yl)thio)pyrido[2,3-b]pyrazin-2-yl)-7-azabicyclo[2.2.1]heptan-2-amine] displayed an IC50 in assay [1] of 112 nM. Same read-out and setting: then `C[C@@H]1OCC2(CCN(c3cnc4nc(Sc5ccnc6[nH]ncc56)ccc4n3)CC2)[C@@H]1N` [Example 214, (3S,4S)-8-(6-((1H-pyrazolo[3,4-b]pyridin-4-yl)thio)pyrido[2,3-b]pyrazin-2-yl)-3-methyl-2-oxa-8-azaspiro[4.5]decan-4-amine], with 304 nM; and `Nc1nccc(Sc2ccc3nc(N4CCO[C@@H]5CNC[C@H]54)cnc3n2)c1Cl` [Example 215, 3-chloro-4-((2-((4aR,7aR)-hexahydropyrrolo[3,4-b][1,4]oxazin-4(4aH)-yl)pyrido[2,3-b]pyrazin-6-yl)thio)235yridine-2-amine], with 780 nM; and `C[C@H]1CC[C@H](N)CN1c1cnc2nc(Sc3ccnc(N)c3Cl)ccc2n1` [Example 216, 4-((2-((2S,5S)-5-amino-2-methylpiperidin-1-yl)pyrido[2,3-b]pyrazin-6-yl)thio)-3-chloropyridin-2-amine], with 3080 nM.

In the case of `C[C@@H]1OCC2(CCN(c3cnc4nc(Sc5ncnc(N)c5Cl)ccc4n3)CC2)[C@@H]1N` [Example 217, (3S,4S)-8-(6-((6-amino-5-chloropyrimidin-4-yl)thio)pyrido[2,3-b]pyrazin-2-yl)-3-methyl-2-oxa-8-azaspiro[4.5]decan-4-amine], the IC50 in assay [1] amounted to 845 nM. Same read-out and setting: the value for `COc1ccc2c(c1)[C@@H](N)C1(CCN(c3cnc4nc(Sc5ccnc(N)c5Cl)ccc4n3)CC1)C2` [Example 219, (S)-1′-(6-((2-amino-3-chloropyridin-4-yl)thio)pyrido[2,3-b]pyrazin-2-yl)-6-methoxy-1,3-dihydrospiro[indene-2,4′-piperidin]-1-amine] was 4190 nM; that for `Nc1nccc(Sc2ccc3nc(N4CCC5(CC4)Cc4c(Cl)cccc4[C@@H]5N)cnc3n2)c1Cl` [Example 220, (R)-1′-(6-((2-amino-3-chloropyridin-4-yl)thio)pyrido[2,3-b]pyrazin-2-yl)-4-chloro-1,3-dihydrospiro[indene-2,4′-piperidin]-1-amine] was 96 nM.

For `C[C@@H]1OCC2(CCN(c3cnc4nc(Sc5cccnc5C(F)(F)F)ccc4n3)CC2)[C@@H]1N` [Example 221, (3S,4S)-3-methyl-8-(6-((2-(trifluoromethyl)pyridin-3-yl)thio)pyrido[2,3-b]pyrazin-2-yl)-2-oxa-8-azaspiro[4.5]decan-4-amine], in assay [1], the 50% inhibitory concentration (IC50) came to 183 nM.
